# Laboratory results published in article PMC12423301, “Astrocytic monoamine oxidase B (MAOB)–gamma-aminobutyric acid (GABA) axis as a molecular brake on repair following spinal cord injury” (Signal Transduction and Targeted Therapy, 2025).
# “Also recorded” adds a separate entry of the source.
# How the values were obtained:
# in vivo = assay: in vivo; set-up: species or system SD Rat; conditions: rat
# Method: Next, we tested whether pharmacological inhibition of MAOB facilitates recovery after SCI. […] The pharmacokinetic (PK) analysis of KDS2010 was performed in mice, rats, and nonhuman primates. […] We substituted the mouse SCI model with a rat SCI model, which has been reported to be better for pharmacological evaluation and closer to human SCI.[21] We performed Basso, Beattie and Bresnahan (BBB) locomotor test[22] to assess the functional recovery once a week for a total of 11 weeks (Fig. 2a). […] In addition to the BBB locomotor test, we performed the ladder rung test by measuring the percentage of hindlimb steps without slipping as rats walked along a horizontal ladder[23] (Fig. 2d, e). […] We then assessed the tissue recovery using EC staining on cross and longitudinal sections of the spinal cord. […]
# In a pharmacokinetic study, plasma PK parameters were measured after a single oral administration of […]
# dose group and at 4 to 6 hours after administration in the 30 mg/kg dose group. In the elimination phase, the […]
# Systemic exposure (AUClast) to the test substance was 30587 and 80770 ng*hr/mL, respectively.
# At this time, AUC0-inf was […]
# time, AUC0-inf was 192000 ng eq.h/mL. […]
# rat SCI model [1] = assay: BBB locomotor test in rat SCI model; format: in vivo, Sprague-Dawley (SD) rats; conditions: for average BBB score: at PI 10w
# Method: For the establishment of the mouse and rat SCI models, we followed methods consistent with those of previous studies.[65]–[67] In mice, a laminectomy was performed at thoracic level 10 (T10), and self-closing forceps (11485-11, Fine Science Tools; 0.10 × 0.06 mm tip, 11 cm) were applied to the exposed spinal cord for 3 s to induce injury. In rats, a laminectomy was performed at thoracic level 9 (T9), followed by the application of the same self-closing forceps (11485-11, Fine Science Tools) for 10 s. Each “Sham” group or “SCI” group indicates animals operated by only laminectomy or SCI, respectively.
# (S)-2-(((4’-Trifluoromethylbiphenyl-4-yl)methyl)amino)propanamide methane-sulfonate (KDS2010) was dissolved in distilled water. For SD rats, KDS2010 was administered via the drinking water ad libitum. […] To evaluate dose-dependent effects, additional groups received 20 mg/kg/day or 30 mg/kg/day starting at PI 2 weeks. To achieve consistent exposure across animals, we meticulously monitored the daily water intake and body weight of each rat throughout the study. As shown in the Extended Data (Supplementary Table 1), water consumption was calculated weekly via a formula based on body weight (e.g., d.w = weight × 0.09 at week 0; gradually tapering to weight × 0.075 by weeks 8–9). Importantly, all animals were confirmed to have consumed the entirety of the provided medicated water each day, ensuring full ingestion of the intended dose (10 mg/kg/day for the majority of groups, and 20/30 mg/kg/day for the dose-dependent experiments).
# Behavioral test was performed every week for a total of 11 weeks (1 week before and 10 weeks after the surgical operation) to assess locomotor recovery. The BBB motor score[22] or BMS score[17] was used to evaluate the quality of hindlimb movement during open field locomotion in rats or mice, respectively. In the first recovery phase, the range of joint movement and the presence of the foot closure on the floor were checked. In the second phase, the recovery of weighted stepping was checked. In the third phase, gait coordination and tail movement were assessed. These scores are “ordinal and the magnitude of behavioral change between ranks may not be consistent,” as originally described.[17] To perform the group allocation in a blinded manner during data collection, animal preparation and behavior tests were performed by at least two different investigators.
# In the BBB locomotor test with drug administration beginning at PI 2w, the animals were initially subjected to injury, and then divided into two groups at PI 2w based on the basis of similar averaged BBB scores. Subsequently, these groups were treated with either the vehicle (SCI + V) or the drug (SCI+drug) from PI 2w. To exclude incompletely generated severe rat SCI animals, we established the following criteria: a score difference of more than 4 between PI 1w and 2w, and a score exceeding 8 at PI 2w.
# rat SCI model [2] = assay: EC / LFB staining of rat spinal cord tissue; format: in vivo, Sprague-Dawley (SD) rats
# Method: EC staining was performed as previously described.[71] The tissue sections were placed on a microscope slide, allowed to dry for 2 h, and then immersed in acetone for 5 min. The slides were incubated for 10 min at 22 ± 2 °C and then treated with EC solution (MERCK, Kenilworth, NJ, USA) for 30 min at 22 ± 2 °C. After the sections were rinsed with running water, they were placed on 5% iron alum (Sigma-Aldrich, F3629) until the gray matter was observed. The sections were differentiated using borax-ferricyanide solution (Borax, Sigma-Aldrich, 71997; Potassium ferricyanide, Sigma-Aldrich, 702587) and dehydrated using graded ethanol solutions of 70%, 90%, and 100% which were changed twice. The sections were mounted with permanent mounting medium (Fisher Scientific, Hampton, NH, USA) and finally observed under a light microscope (DM 2500, Leica, Wetzlar, Germany). LFB staining was performed as previously described.[70] The myelin sheath of axons in the tissue sections were stained with 1% luxol fast blue (Sigma-Aldrich, L0294) at 60 °C overnight. The sections were rinsed with lithium carbonate (Sigma-Aldrich, 255823) solution and differentiated by 70% alcohol and then observed under a light microscope (IX71, Olympus, Tokyo, Japan).
# rat SCI model [3] = assay: Ki67 promoter dual-virus labeling of proliferating cells; format: in vivo, Sprague-Dawley (SD) rats; conditions: SCI + KDS 2w, PI 10w
# [4] = test system: GABAA receptor-mediated currents from lamina II dorsal horn neurons; assay: Tonic GABA current recording; format: in vivo, rat; conditions: SCI + KDS 2w, PI 10w
# [5] = Preclinical pharmacokinetics in monkeys; conditions: cynomolgus monkey, in vivo, iv, 5 mg/kg
# [6] = test system: Alzheimer’s disease mouse model; conditions: cited from earlier work
# [7] = test system: white matter stroke rat model; conditions: cited from earlier work
smiles,measurement,setting,value
"CS(=O)(=O)O.C[C@H](NCc1ccc(-c2ccc(C(F)(F)F)cc2)cc1)C(N)=O [KDS2010, (S)-2-(((4’-Trifluoromethylbiphenyl-4-yl)methyl)amino)propanamide methane-sulfonate]",AUC(0-inf),"in vivo; SD, iv, 1 mg/kg",164 ± 13.1 ng·h/mL
same,Vd/F,"in vivo; SD, iv, 1 mg/kg",18.377 ± 2.743 L/kg
same,half-life,"in vivo; SD, iv, 1 mg/kg",2.1 ± 0.3 h
same,AUC(0-inf),"in vivo; SD, po, 9 mg/kg",9120 ± 4130 ng·h/mL
same,Vd/F,"in vivo; SD, po, 9 mg/kg",19.7 ± 4.34 L/kg
same,half-life,"in vivo; SD, po, 9 mg/kg",14.6 ± 8.7 h
same,AUC(0-t),in vivo; Sprague-Dawley,~3000 ng·h/mL
same,AUC,"in vivo; Sprague-Dawley, po, 9 mg/kg",3000 ng·h/mL
same,CL/F,"in vivo; Sprague-Dawley, po, 9 mg/kg",19 mL/min/kg
same,Cmax,"in vivo; Sprague-Dawley, po, 9 mg/kg",508 ng/mL
same,half-life,"in vivo; Sprague-Dawley, po, 9 mg/kg",10.8 h
same,BBB locomotor scores,"rat SCI model [1]; 10, 20, and 30 mpk from subacute phase, at 10w PI",dose-dependent improvement
same,average BBB score,rat SCI model [1]; SCI + KDS 2w: 10 mg/kg/day in drinking water from PI 2w (subacute),10.62
same,recovery in BBB locomotor test and ladder rung test,rat SCI model [1]; SCI + KDS 6w: 10 mpk from chronic phase (PI 6w),significant motor recovery
same,average BBB score,"rat SCI model [1]; SCI + KDS 1 d/Re: 10 mpk from acute phase (PI 1 d), recovery subgroup",15.36
same,behavioral recovery in BBB locomotor test,"rat SCI model [1]; SCI+KDS1d/No: 10 mpk from acute phase, no-recovery subgroup",did not show any behavioral recovery
same,pharmacologically active dose (PAD),"rat SCI model [1]; SD rats, for 8 weeks",10 mpk
same,"tissue recovery (total cord area, myelinated area)","rat SCI model [2]; 10, 20, and 30 mpk, PI 10w",significant tissue recovery
same,"total spinal cord, myelinated, gray matter areas and cavity size (EC staining)","rat SCI model [2]; SCI + KDS 2w vs SCI + V, PI 10w",significantly recovered
same,total spinal cord and myelinated areas,"rat SCI model [2]; SCI + KDS 1 d/Re, PI 10w",significantly recovered
same,total spinal cord and myelinated areas,"rat SCI model [2]; SCI+KDS 6w vs SCI+V, PI 14w",tendency toward larger; also recorded: increasing trend
same,mCh-positive signals (axon fibers from proliferating/proliferated cells),rat SCI model [3],traversed the core of the injury site
same,tonic GABA current density,[4],significantly recovered
same,AUC(0-inf),[5],17900 ± 2460 ng·h/mL
same,half-life,[5]; t1/2,8.65 ± 0.97 h
same,learning and memory impairment,[6],reverse learning and memory impairment
same,motor performance,[7],improve motor performance
